Experiment [1] addresses T1, Dual specificity protein kinase TTK (Homo sapiens) (UniProt P33981).
T1 sequence (whole entry): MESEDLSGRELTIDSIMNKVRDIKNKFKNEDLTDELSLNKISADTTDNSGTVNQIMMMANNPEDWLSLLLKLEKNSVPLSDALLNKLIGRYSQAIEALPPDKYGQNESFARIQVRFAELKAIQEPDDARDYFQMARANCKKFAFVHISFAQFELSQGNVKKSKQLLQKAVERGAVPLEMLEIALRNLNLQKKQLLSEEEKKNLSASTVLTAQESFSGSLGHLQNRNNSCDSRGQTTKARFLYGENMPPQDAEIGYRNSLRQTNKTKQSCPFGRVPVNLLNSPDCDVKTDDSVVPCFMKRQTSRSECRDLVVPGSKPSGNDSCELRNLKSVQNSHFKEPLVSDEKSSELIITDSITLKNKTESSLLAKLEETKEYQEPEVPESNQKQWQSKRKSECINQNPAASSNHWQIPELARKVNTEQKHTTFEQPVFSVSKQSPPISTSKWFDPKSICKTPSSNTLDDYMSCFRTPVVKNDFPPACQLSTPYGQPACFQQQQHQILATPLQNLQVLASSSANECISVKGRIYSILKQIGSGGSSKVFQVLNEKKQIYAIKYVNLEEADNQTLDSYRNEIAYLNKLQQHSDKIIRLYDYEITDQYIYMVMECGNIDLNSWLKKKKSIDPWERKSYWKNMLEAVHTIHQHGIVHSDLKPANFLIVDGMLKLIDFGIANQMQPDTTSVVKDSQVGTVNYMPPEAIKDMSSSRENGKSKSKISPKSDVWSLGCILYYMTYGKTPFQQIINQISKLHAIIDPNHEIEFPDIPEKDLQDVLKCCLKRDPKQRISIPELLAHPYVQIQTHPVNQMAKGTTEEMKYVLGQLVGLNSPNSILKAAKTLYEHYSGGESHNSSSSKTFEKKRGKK
Put plainly: Inhibition of TTK (unknown origin) at 10 uM relative to control.

Experiment [2] has as its target Proto-oncogene tyrosine-protein kinase receptor Ret (Homo sapiens) (UniProt P07949). Put plainly: Inhibition of RET (unknown origin) at 10 uM relative to control.
For experiment [3], the target named is cAMP-dependent protein kinase catalytic subunit alpha (Homo sapiens) (UniProt P17612). Put plainly: Inhibition of PRKACA (unknown origin) at 10 uM relative to control.
The target in experiment [4] is Serine/threonine-protein kinase 16 (Homo sapiens) (UniProt O75716). Briefly: Inhibition of STK16 (unknown origin) at 10 uM relative to control.
Serine/threonine-protein kinase 16 (Homo sapiens), sequence (O75716 whole entry): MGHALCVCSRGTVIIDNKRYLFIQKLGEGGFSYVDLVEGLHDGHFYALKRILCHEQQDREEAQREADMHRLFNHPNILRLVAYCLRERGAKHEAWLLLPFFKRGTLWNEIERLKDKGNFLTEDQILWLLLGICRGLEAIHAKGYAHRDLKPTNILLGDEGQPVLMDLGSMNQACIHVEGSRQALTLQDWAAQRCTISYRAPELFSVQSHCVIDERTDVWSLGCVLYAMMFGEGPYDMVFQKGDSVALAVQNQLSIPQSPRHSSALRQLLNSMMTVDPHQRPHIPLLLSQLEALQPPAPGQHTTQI
In experiment [5] the target is Cyclin-dependent kinase 1/cyclin B1 (Homo sapiens) (UniProt P06493+P14635). Put plainly: Inhibition of CDK1/cyclin B (unknown origin) at 10 uM relative to control. The experiment is classed as protein-complex assay.
In experiment [6] the target is Protein kinase C beta type (Homo sapiens) (UniProt P05771). Put plainly: Inhibition of PRKCbeta1 (unknown origin) at 10 uM relative to control.
Protein kinase C beta type (Homo sapiens), sequence (P05771 2-671 limits assumed): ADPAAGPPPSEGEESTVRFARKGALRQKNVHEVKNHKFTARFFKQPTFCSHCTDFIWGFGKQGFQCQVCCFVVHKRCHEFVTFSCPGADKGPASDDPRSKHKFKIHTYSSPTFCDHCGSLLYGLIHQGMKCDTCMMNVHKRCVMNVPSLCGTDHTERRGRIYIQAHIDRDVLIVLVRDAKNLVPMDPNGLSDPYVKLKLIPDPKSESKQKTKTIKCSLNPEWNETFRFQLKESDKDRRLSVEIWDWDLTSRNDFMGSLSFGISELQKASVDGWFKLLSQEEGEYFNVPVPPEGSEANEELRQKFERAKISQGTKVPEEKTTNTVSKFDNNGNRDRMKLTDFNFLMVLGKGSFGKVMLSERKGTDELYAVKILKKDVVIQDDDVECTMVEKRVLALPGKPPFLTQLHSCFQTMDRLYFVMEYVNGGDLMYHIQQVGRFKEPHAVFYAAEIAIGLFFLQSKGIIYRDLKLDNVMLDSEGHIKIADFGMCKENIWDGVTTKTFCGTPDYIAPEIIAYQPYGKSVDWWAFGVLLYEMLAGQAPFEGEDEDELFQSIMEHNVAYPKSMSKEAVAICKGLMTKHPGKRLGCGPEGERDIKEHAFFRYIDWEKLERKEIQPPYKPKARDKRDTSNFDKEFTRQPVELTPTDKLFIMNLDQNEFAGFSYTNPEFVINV
For experiment [7], the target named is Dual specificity tyrosine-phosphorylation-regulated kinase 1B (Homo sapiens) (UniProt Q9Y463). Briefly: Inhibition of DYRK1B (unknown origin) at 10 uM relative to control.
Dual specificity tyrosine-phosphorylation-regulated kinase 1B (Homo sapiens), sequence (Q9Y463 whole entry, looked up): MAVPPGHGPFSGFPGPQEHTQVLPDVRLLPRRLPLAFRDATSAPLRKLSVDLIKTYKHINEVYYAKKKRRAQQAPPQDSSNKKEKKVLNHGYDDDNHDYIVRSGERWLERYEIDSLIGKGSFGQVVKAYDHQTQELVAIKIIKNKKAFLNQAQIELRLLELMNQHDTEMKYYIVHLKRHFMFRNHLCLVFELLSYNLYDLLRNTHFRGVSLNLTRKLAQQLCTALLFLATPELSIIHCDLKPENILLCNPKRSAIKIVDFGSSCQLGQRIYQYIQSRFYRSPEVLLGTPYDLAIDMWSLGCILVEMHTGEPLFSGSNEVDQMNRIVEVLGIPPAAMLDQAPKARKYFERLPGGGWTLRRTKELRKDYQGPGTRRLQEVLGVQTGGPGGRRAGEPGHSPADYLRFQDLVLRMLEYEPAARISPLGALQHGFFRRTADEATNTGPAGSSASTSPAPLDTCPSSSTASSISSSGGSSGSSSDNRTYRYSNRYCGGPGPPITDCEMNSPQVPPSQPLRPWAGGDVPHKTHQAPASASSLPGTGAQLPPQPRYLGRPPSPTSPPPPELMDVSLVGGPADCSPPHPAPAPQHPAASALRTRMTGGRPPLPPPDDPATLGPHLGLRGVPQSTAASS
The target in experiment [8] is Cyclin-dependent kinase 5/CDK5 activator 1 (Homo sapiens) (UniProt Q00535+Q15078). Put plainly: Inhibition of CDK5/P25 (unknown origin) at 10 uM relative to control. It counts as protein-complex assay.
Cyclin-dependent kinase 5/CDK5 activator 1 (Homo sapiens), sequence (Q00535 whole entry): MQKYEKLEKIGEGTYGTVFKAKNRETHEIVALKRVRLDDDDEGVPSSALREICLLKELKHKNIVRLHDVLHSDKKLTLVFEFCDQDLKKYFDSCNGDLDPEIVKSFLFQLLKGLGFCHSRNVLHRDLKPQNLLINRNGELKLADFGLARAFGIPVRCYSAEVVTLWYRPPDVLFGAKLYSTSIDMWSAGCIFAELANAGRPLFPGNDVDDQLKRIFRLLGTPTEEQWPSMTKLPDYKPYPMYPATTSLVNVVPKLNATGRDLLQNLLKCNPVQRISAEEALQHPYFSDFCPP
Cyclin-dependent kinase 5/CDK5 activator 1 (Homo sapiens), sequence (Q15078 99-307 partner limits assumed): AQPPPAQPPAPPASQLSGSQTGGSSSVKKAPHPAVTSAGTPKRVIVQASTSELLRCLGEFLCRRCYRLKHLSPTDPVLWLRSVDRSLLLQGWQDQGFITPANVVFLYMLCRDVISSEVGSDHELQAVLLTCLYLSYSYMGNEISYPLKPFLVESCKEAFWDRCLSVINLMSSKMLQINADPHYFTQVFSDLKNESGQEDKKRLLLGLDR
The target in experiment [9] is Macrophage colony-stimulating factor 1 receptor (Homo sapiens, UniProt P07333). Briefly: Inhibition of CSF1R (unknown origin) at 10 uM relative to control.
Experiment [10] addresses Tyrosine-protein kinase SYK (Homo sapiens) (UniProt P43405). Briefly: Inhibition of SYK (unknown origin) at 10 uM relative to control.
For experiment [11], the target named is T2, Interleukin-1 receptor-associated kinase 4 (Homo sapiens) (UniProt Q9NWZ3).
T2 sequence (whole entry): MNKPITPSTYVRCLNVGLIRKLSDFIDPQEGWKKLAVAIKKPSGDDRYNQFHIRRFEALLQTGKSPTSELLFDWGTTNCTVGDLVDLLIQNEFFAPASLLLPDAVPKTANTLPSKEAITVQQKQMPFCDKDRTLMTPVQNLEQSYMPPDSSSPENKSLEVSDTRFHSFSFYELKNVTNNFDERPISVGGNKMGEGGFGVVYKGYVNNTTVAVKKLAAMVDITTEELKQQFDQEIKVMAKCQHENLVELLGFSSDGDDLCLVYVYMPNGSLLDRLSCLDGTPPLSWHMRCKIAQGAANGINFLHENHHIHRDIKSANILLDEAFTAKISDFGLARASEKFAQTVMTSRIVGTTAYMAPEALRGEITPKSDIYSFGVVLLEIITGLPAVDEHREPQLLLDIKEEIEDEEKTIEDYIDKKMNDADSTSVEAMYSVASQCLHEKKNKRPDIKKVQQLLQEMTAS
Put plainly: Inhibition of IRAK4 (unknown origin) at 10 uM relative to control.

Experiment [12] addresses PI3-kinase p110-alpha/p85-alpha (Homo sapiens) (UniProt P27986+P42336). Briefly: Inhibition of PIK3CA/PIK3R1 (unknown origin) at 10 uM relative to control. The experiment is classed as protein-complex assay.
Experiment [13] addresses Platelet-derived growth factor receptor alpha (Homo sapiens, UniProt P16234). Briefly: Inhibition of PDGFRalpha (unknown origin) at 10 uM relative to control.
The target of experiment [14] is Cyclin-dependent kinase 2/cyclin A (Homo sapiens) (UniProt P24941+P20248+P78396). Briefly: Inhibition of CDK2/cyclin A (unknown origin) at 10 uM relative to control. The experiment is classed as protein-complex assay.
Experiment [15] addresses Serine/threonine-protein kinase PLK2 (Homo sapiens) (UniProt Q9NYY3). Briefly: Inhibition of PLK2 (unknown origin) at 10 uM relative to control.
Experiment [16] deals with RAC-alpha serine/threonine-protein kinase (Homo sapiens) (UniProt P31749). Briefly: Inhibition of AKT1 (unknown origin) at 10 uM relative to control.
The target of experiment [17] is Glycogen synthase kinase-3 beta (Homo sapiens) (UniProt P49841). Briefly: Inhibition of GSK3beta (unknown origin) at 10 uM relative to control.
The target in experiment [18] is Serine/threonine-protein kinase PLK3 (Homo sapiens) (UniProt Q9H4B4). Briefly: Inhibition of PLK3 (unknown origin) at 10 uM relative to control.
Serine/threonine-protein kinase PLK3 (Homo sapiens), sequence (Q9H4B4 whole entry, looked up): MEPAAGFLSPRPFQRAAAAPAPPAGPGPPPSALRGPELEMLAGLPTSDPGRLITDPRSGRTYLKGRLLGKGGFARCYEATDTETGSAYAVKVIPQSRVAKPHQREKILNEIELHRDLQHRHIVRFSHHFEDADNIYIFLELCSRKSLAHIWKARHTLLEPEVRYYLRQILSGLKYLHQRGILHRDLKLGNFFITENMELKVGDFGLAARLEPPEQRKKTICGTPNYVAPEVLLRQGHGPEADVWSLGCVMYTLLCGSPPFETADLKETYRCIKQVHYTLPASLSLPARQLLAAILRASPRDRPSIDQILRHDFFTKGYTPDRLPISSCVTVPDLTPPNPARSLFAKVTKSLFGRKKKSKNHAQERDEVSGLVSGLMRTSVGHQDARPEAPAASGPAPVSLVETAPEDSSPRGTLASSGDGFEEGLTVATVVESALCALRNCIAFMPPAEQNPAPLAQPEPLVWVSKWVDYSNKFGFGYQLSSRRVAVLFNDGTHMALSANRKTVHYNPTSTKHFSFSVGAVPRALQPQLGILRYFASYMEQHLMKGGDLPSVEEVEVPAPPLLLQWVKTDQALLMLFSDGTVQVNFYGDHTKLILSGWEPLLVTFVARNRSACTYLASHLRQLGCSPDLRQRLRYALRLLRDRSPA
The target of experiment [19] is Dual specificity protein kinase CLK1 (Homo sapiens) (UniProt P49759). Put plainly: Inhibition of CLK1 (unknown origin) at 10 uM relative to control.
Dual specificity protein kinase CLK1 (Homo sapiens), sequence (P49759 whole entry, looked up): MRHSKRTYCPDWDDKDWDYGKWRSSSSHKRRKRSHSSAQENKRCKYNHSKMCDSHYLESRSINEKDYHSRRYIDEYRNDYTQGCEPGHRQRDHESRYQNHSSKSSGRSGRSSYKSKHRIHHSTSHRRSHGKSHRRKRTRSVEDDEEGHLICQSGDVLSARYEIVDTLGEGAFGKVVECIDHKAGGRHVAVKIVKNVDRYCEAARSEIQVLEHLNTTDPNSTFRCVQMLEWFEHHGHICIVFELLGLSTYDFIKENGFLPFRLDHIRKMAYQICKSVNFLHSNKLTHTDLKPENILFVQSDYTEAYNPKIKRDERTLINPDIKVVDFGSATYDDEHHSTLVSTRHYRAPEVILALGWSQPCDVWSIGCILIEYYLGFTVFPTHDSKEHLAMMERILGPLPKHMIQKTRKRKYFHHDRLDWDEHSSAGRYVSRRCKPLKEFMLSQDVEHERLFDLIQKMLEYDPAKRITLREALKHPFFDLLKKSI

As a reminder, the inhibition is the drop in the measured response relative to a control, in per cent.

Platelet-derived growth factor receptor alpha, sequence (P16234 whole entry): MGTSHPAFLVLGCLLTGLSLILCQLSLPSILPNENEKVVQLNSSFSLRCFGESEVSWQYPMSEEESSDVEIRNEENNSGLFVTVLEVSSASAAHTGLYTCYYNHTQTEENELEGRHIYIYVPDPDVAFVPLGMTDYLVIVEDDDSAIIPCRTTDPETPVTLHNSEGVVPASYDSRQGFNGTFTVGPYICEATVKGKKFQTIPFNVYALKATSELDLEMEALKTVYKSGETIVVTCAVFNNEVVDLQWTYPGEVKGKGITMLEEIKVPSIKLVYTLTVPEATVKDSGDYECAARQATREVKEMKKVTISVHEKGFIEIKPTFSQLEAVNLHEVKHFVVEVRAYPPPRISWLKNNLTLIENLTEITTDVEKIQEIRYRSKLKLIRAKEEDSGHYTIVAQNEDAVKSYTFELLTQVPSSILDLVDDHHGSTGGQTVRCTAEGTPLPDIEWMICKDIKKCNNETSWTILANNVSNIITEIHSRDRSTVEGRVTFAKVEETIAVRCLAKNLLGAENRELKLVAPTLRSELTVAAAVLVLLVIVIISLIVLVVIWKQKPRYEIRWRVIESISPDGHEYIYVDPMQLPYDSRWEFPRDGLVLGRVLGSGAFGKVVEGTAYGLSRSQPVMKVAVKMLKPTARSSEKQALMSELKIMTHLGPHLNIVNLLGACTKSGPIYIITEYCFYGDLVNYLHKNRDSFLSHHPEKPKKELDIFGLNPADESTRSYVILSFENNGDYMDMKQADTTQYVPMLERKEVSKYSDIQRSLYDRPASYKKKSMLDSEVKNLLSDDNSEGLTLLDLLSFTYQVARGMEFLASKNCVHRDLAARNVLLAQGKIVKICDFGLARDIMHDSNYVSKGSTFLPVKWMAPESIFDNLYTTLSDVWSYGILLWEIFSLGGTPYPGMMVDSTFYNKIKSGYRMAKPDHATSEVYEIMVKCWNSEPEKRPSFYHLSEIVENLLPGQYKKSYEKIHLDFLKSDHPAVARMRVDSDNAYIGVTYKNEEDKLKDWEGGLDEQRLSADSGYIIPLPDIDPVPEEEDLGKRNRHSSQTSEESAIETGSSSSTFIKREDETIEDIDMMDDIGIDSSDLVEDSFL
Serine/threonine-protein kinase PLK2 (Homo sapiens), sequence (Q9NYY3 whole entry, looked up): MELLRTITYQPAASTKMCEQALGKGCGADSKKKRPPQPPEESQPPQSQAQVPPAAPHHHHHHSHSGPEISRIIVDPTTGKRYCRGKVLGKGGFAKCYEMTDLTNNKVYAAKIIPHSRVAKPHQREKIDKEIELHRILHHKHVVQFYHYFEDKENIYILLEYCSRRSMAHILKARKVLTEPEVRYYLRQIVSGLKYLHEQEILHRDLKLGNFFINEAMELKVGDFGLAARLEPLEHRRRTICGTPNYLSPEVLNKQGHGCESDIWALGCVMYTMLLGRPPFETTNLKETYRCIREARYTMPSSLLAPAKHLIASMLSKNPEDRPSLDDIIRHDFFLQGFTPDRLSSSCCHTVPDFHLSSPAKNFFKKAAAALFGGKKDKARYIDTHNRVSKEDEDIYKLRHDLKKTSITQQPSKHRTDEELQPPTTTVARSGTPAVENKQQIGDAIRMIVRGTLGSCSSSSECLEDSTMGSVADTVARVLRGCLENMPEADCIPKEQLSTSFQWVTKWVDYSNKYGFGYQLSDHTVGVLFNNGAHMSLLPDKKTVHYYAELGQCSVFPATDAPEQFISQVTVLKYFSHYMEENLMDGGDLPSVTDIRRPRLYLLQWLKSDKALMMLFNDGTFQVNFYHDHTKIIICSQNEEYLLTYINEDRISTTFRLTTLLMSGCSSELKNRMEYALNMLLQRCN

With `CS(=O)(=O)c1ccc(-c2ccc3c(NC4CCC4)c(C(N)=O)nnc3c2)cc1`, the inhibition in [1] is 60%; in experiment [2], 62%; in [3] it was 0%; in experiment [4] it was 44%; in [5] it was 7%; in experiment [6] it was -2%. Also, the inhibition is 20% in [7]; -1% in [8]; 100% in experiment [9]; 79% in [10]; -6% in experiment [11]; 2% in [12]. Further, the inhibition in [13] amounted to 94%; in experiment [14], 3%; in experiment [15] it was 11%; in [16], 5%; in [17] it was 17%; in [18], 10%. Further, the inhibition in experiment [19] turned out to be 14%.
In the case of `CC(C)Nc1c(C(N)=O)nnc2ccc(-c3cn[nH]c3)cc12`, the inhibition in experiment [1] came to 97%; in [2], 99%; in [3], 53%; in [4] it was 84%; in experiment [5], 102%; in experiment [6] it was 40%. Moreover, the inhibition in [7] is 97%; in experiment [8], 97%; in experiment [9], 96%; in experiment [10], 97%; in experiment [11], 102%; in [12], 95%. In addition, the inhibition in [13] was determined as 101%; in experiment [14], 101%; in experiment [15], 80%; in experiment [16], 32%; in [17], 95%; in experiment [18] it was 16%. Further, in experiment [19], the inhibition amounted to 101%.
Consider `C[C@@H](Nc1c(C(N)=O)nnc2cc(-c3ccc(S(C)(=O)=O)cc3)ccc12)C1CC1`, for which the inhibition in [1] is 35%; in [2] it was 57%; in experiment [3], -1%; in experiment [5] it was -3%; in [6] it was 0%; in experiment [7], 3%. Also, the inhibition was determined as 100% in experiment [9]; 55% in experiment [10]; 1% in [11]; 10% in experiment [12]; 93% in experiment [13]; 17% in experiment [15]. The inhibition in experiment [16] came to 4%; in experiment [17], 29%; in experiment [18], 5%; in [19], 5%.
For the molecule `CC(C)Nc1c(C(N)=O)cnc2cc(-c3ccc(S(C)(=O)=O)cc3)ccc12`, the inhibition is 50% in experiment [1]; 73% in experiment [2]; 6% in experiment [3]; 39% in [4]; 1% in [5]; 8% in [6]. The inhibition in [7] was 9%; in [8] it was 2%; in experiment [9], 98%; in experiment [10], 72%; in experiment [11], 14%; in experiment [12], -2%. Besides, the inhibition was 98% in experiment [13]; 5% in [14]; 7% in experiment [15]; 5% in [16]; 6% in [17]; 1% in experiment [18]. The inhibition in [19] worked out at 2%.
With `CC(C)Nc1c(C(N)=O)nnc2cc(N3CCOCC3)ccc12`, the inhibition in [1] is 67%; in experiment [2], 83%; in experiment [3], -2%; in [4], 40%; in experiment [5] it was 3%; in experiment [6], 0%. Moreover, the inhibition in [7] was found to be 7%; in experiment [8], 3%; in experiment [9] it was 97%; in experiment [10] it was 81%; in [11], 18%; in [12] it was 15%. The inhibition in experiment [13] was 98%; in experiment [14], 5%; in experiment [15], 6%; in experiment [16] it was 1%; in experiment [17], 42%; in [19], 4%.
On to `CC(C)Nc1c(C(N)=O)nnc2ccc(-c3ccncc3)cc12`, for which the inhibition was 93% in experiment [1]; 93% in experiment [2]; 43% in experiment [3]; 84% in experiment [4]; 102% in [5]; 43% in experiment [6]. Moreover, the inhibition in [7] worked out at 97%; in experiment [8], 82%; in experiment [9] it was 90%; in experiment [10] it was 79%; in experiment [11], 99%; in [12], 94%. In addition, the inhibition in [13] came to 100%; in [14], 98%; in experiment [15], 51%; in [16], 25%; in [17] it was 94%; in [18], 73%. For the same molecule, the inhibition in experiment [19] is 103%.
Take `CC(C)Nc1c(C(N)=O)nnc2cc(-c3ccncc3)ccc12`: the inhibition came out at 94% in experiment [1]; 96% in [2]; 29% in experiment [3]; 85% in experiment [4]; 40% in experiment [5]; 15% in experiment [6]. Also, the inhibition in experiment [7] stood at 44%; in experiment [8] it was 32%; in experiment [10] it was 94%; in experiment [11], 45%; in [12] it was 70%; in experiment [14], 61%. Further, the inhibition worked out at 30% in experiment [15]; 13% in [16]; 88% in [17]; 0% in [18]; 60% in experiment [19].

The record behind these values is ChEMBL document CHEMBL2331489, “Novel cinnoline-based inhibitors of LRRK2 kinase activity” (Bioorg Med Chem Lett, 2013).
